Experimental data as given in US20260265238A1, “COMPOUNDS AND PHARMACEUTICAL COMPOSITIONS THAT DEGRADE SWI/SNF-RELATED MATRIX-ASSOCIATED ACTIN-DEPENDENT REGULATOR OF CHROMATIN SUBFAMILY A” (Plexium, Inc., priority 2023, published 2026).

Experiments:
[1] = biological target: T1, SMARCA2-HiBiT HeLa cells (protein which is expressed from the SMARCA2 gene) (Homo sapiens, UniProt P51531); test: SMARCA2 degradation assay (HiBiT-fusion HeLa cell line, 24 h, luminescence); format: cell-based
T1 construct: protein which is expressed from the SMARCA2 and SMARCA4 genes; host or cells: HeLa (SMARCA2-HiBiT engineered line)
T1 sequence (P51531 whole entry, the tested form may be a part): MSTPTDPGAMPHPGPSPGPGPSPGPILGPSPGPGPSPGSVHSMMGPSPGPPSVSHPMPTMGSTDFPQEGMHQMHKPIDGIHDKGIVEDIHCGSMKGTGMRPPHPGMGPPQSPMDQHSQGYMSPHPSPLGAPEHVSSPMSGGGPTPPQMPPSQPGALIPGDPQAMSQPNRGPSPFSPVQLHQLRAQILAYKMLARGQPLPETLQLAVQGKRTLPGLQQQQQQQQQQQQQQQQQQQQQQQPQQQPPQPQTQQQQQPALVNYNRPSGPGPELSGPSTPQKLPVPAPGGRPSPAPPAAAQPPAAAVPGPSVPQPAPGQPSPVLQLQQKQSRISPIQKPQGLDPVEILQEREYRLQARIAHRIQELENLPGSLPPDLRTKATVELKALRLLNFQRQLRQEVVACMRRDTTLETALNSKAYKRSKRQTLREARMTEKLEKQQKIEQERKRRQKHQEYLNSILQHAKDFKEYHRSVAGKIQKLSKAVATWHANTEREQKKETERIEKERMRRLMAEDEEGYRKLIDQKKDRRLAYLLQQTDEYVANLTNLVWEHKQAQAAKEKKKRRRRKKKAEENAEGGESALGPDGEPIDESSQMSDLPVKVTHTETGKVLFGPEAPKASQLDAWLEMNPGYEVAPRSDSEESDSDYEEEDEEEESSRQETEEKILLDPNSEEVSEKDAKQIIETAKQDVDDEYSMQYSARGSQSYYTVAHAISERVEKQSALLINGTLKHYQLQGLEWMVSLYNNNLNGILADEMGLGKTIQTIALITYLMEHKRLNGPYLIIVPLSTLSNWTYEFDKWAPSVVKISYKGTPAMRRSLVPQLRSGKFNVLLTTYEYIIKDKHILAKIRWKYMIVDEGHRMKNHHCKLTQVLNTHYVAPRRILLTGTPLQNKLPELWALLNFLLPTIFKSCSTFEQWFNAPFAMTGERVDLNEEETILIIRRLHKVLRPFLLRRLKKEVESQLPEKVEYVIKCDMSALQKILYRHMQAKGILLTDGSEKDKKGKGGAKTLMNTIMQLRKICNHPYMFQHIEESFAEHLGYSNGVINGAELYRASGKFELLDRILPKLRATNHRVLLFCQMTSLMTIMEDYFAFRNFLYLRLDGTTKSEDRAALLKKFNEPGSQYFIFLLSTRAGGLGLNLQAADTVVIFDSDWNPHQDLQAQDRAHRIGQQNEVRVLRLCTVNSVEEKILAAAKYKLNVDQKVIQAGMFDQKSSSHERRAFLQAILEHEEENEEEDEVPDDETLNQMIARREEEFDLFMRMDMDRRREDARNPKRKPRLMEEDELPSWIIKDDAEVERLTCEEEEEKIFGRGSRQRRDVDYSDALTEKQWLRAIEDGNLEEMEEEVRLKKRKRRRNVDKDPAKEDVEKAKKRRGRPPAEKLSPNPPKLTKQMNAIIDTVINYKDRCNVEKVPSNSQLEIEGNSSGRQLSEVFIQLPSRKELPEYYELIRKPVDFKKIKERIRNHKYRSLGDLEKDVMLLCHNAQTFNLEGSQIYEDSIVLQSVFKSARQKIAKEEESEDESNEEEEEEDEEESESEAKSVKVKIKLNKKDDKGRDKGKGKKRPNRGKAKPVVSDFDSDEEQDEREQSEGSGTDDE
Procedure, shortened: (§1)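 In this 24-hour cellular degradation readout, HiBiT-tagged HeLa lines received compound at up to typically 10 μM down to 300 pM in 10 points. After lysis with LgBiT and substrate, luminescence signals were used to build dose-response curves for DC50.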

[2] = biological target: T2, SMARCA4-HiBiT HeLa cells (protein which is expressed from the SMARCA4 gene) (Homo sapiens, UniProt P51532); test: SMARCA4 degradation assay (HiBiT-fusion HeLa cell line, 24 h, luminescence); format: cell-based
T2 construct: protein which is expressed from the SMARCA2 and SMARCA4 genes; host or cells: HeLa (SMARCA4-HiBiT engineered line)
T2 sequence (P51532 whole entry, the tested form may be a part): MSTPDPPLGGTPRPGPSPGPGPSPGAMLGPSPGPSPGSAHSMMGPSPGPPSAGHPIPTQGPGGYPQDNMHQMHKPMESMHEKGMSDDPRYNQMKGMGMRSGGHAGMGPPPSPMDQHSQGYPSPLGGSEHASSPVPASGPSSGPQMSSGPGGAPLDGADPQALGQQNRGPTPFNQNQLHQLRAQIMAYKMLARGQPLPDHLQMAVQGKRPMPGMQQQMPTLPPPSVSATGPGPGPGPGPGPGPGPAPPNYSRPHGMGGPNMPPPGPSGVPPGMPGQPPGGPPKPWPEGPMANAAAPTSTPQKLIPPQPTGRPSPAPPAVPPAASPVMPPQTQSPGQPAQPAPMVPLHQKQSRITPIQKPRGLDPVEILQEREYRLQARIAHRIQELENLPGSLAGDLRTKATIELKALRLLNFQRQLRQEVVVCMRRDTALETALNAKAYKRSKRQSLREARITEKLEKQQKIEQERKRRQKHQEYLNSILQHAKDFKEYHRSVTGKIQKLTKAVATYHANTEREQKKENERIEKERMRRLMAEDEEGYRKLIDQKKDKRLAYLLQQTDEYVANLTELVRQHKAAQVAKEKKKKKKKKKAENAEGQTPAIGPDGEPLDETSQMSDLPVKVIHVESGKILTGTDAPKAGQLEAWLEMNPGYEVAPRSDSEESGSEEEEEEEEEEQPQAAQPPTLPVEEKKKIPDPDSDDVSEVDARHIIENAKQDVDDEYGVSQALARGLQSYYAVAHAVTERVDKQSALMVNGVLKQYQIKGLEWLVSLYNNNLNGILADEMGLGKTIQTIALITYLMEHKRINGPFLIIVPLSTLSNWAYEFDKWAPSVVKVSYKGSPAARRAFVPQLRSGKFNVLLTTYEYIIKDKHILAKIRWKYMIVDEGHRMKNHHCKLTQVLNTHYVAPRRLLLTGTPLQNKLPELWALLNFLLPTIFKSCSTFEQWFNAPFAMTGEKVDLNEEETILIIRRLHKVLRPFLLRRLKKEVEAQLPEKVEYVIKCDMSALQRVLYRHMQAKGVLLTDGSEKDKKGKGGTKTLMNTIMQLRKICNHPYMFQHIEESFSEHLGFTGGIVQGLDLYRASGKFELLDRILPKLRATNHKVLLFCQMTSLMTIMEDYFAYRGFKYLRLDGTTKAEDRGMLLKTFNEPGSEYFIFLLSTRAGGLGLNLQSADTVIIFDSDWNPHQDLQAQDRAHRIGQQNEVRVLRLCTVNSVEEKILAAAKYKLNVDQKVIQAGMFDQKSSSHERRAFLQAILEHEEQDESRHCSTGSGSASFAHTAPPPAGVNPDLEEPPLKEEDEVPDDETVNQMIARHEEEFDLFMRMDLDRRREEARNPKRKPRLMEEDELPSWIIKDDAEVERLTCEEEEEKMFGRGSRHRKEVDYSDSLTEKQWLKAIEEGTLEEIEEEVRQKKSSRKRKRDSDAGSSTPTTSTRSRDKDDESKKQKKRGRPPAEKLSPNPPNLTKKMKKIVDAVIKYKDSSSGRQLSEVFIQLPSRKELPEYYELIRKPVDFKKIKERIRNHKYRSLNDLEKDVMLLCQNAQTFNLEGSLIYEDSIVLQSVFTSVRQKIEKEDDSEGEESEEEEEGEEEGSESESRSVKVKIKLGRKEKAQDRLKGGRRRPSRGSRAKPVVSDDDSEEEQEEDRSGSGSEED
Procedure, shortened: as §1

Row | Structure (SMILES) | DC50 [1] [nM] | SMARCA2 % Degradation @ 1 μM [1] | DC50 [2] [nM] | inhibition at 1 µM [2] [%]
1 | CN(C)CC#Cc1cc(OC2CCN(c3cc(-c4ccccc4O)nnc3N)CC2)ccn1 [Compound P-384, 0-[6-amino-5-(4-{2-[3-(dimethylamino)-1-propynyl]-4-pyridyloxy}-1-piperidyl)-3-pyridazinyl]phenol] | 50 to 500 | ++ (++=30-70%) | 50 to 500 | < 30
2 | CN(C)CC#Cc1nc(N2CCCN(c3cc(-c4ccccc4O)nnc3N)CC2)ccc1C#N [Compound P-385, 6-{4-[3-amino-6-(o-hydroxyphenyl)-4-pyridazinyl]-1,4-diazepan-1-y1}-2-[3-(dimethylamino)-1-propynyl]nicotinonitrile] | 50 to 500 | +++ (+++=>70%) | 50 to 500 | > 70
3 | CN(C)CC#Cc1cc(OC2CN(c3cc(-c4ccccc4O)nnc3N)C2)ccn1 [Compound P-386, 0-[6-amino-5-(3-{2-[3-(dimethylamino)-1-propynyl]-4-pyridyloxy}-1-azetidinyl)-3-pyridazinyl]phenol] | < 50 | + (+=<30%) | < 50 | –
4 | CN(C)CC#Cc1cc(N2C[C@@H]3CN(c4cc(-c5ccccc5O)nnc4N)C[C@@H]3C2)ccn1 [Compound P-389, 0-{5-[(1R,5S)-7-{2-[3-(dimethylamino)-1-propynyl]-4-pyridyl}-3,7-diazabicyclo[3.3.0]oct-3-yl]-6-amino-3-pyridazinyl} phenol] | 50 to 500 | ++ (++=30-70%) | < 50 | 30 to 70
5 | C[C@@H]1CCN(c2cc(-c3ccccc3O)nnc2N)CCN1c1ccc(C#N)c(C#CCN2CC3CC2C3)n1 [Compound P-393, 6-{(R)-4-[3-amino-6-(o-hydroxyphenyl)-4-pyridazinyl]-7-methyl-1,4-diazepan-1-yl}-2-{3-(2-azabicyclo[2.1.1]hex-2-yl)-1-propynyl} nicotinonitrile] | < 50 | +++ (+++=>70%) | < 50 | 30 to 70
6 | C[C@@H]1CCN(c2cc(-c3ccccc3O)nnc2N)CCN1c1ccc(C(F)(F)F)c(C#CCN2CCCC2)n1 [Compound P-394] | 500 to 5000 | + (+=<30%) | 500 to 5000 | –
7 | C[C@@H]1CCN(c2cc(-c3ccccc3O)nnc2N)CCN1c1ccc(C(F)(F)F)c(C#CCN(C)C)n1 [Compound P-395, 0-{5-[(R)-4-{6-[3-(dimethylamino)-1-propynyl]-5-(trifluoromcthyl)-2-pyridyl}-5-methyl-1,4-diazepan-1-yl]-6-amino-3-pyridazinyl}phenol] | 500 to 5000 | – | > 5000 | –
8 | COCC#Cc1nc(N2CCN(c3cc(-c4ccccc4O)nnc3N)CC[C@H]2C)ccc1C#N [Compound P-400, 6-{(R)-4-[3-amino-6-(o-hydroxyphenyl)-4-pyridazinyl]-7-methyl-1,4-diazepan-1-yl}-2-(3-methoxy-1-propynyl)nicotinonitrile] | 500 to 5000 | – | > 5000 | –
9 | N#Cc1ccc(N2C3CCC2CN(c2cnnc(-c4ccccc4O)c2)C3)nc1C#CCN1CC[C@H](F)C1 [Compound P-402, 2-{3-[(S)-3-fluoro-1-pyrrolidinyl]-1-propynyl}-6-{3-[6-(o-hydroxyphenyl)-4-pyridazinyl]-3,8-diazabicyclo[3.2.1]oct-8-yl}nicotinonitrile] | 50 to 500 | ++ (++=30-70%) | 50 to 500 | < 30
10 | N#Cc1ccc(N2C3CCC2CN(c2cnnc(-c4ccccc4O)c2)C3)nc1C#CCN1CC(F)(F)C1 [Compound P-403, 2-[3-(3,3-difluoro-1-azetidinyl)-1-propynyl]-6-{3-[6-(o-hydroxyphenyl)-4-pyridazinyl]-3,8-diazabicyclo[3.2.1]oct-8-yl} nicotinonitrile] | 500 to 5000 | – | > 5000 | –
11 | C[C@@H]1CCN(c2cc(-c3ccccc3O)nnc2N)CCN1c1ccnc(C#CCn2cncn2)c1C#N [Compound P-405, 4-{(R)-4-[3-amino-6-(0-hydroxyphenyl)-4-pyridaziny1]-7-methyl-1,4-diazepan-1-yl}-2-[3-(1H-1,2,4-triazol-1-yl)-1-propynyl]nicotinonitrile] | 500 to 5000 | – | > 5000 | –
12 | C[C@@H]1CCN(c2cc(-c3ccccc3O)nnc2N)CCN1c1cc(C#CCn2ccnc2)ncc1Cl [Compound P-408, 0-{5-[(R)-4-{5-chloro-2-[3-(1-imidazolyl)-1-propynyl]-4-pyridyl}-5-methyl-1,4-diazepan-1-yl]-6-amino-3-pyridazinyl} phenol] | 50 to 500 | ++ (++=30-70%) | 50 to 500 | 30 to 70

More lines, now with the values ahead:

Row | DC50 [1] [nM] | SMARCA2 % Degradation @ 1 μM [1] | DC50 [2] [nM] | inhibition at 1 µM [2] [%] | Structure (SMILES)
13 | 50 to 500 | ++ (++=30-70%) | 500 to 5000 | 30 to 70 | C[C@@H]1CCN(c2cc(-c3ccccc3O)nnc2N)CCN1c1ccnc(C#CC2CCC2)c1 [Compound P-388, 0-(5-{(R)-4-[2-(2-cyclobutylethynyl)-4-pyridyl]-5-methyl-1,4-diazepan-1-yl}-6-amino-3-pyridazinyl)phenol]
14 | 50 to 500 | +++ (+++=>70%) | 50 to 500 | > 70 | C[C@@H]1CCN(c2cc(-c3ccccc3O)nnc2N)CCN1c1ccnc(C#CCN2CCCC2=O)c1 [Compound P-390, 1-[3-(4-{ (R)-4-[3-amino-6-(o-hydroxyphenyl)-4-pyridaziny1]-7-methyl-1,4-diazepan-1-yl}-2-pyridyl)-2-propynyl]-2-pyrrolidinone]
15 | 50 to 500 | ++ (++=30-70%) | 50 to 500 | – | C[C@@H]1CCN(c2cc(-c3ccccc3O)nnc2N)CCN1c1ccnc(C#CC2CC2)c1 [Compound P-391, 0-(5-{(R)-4-[2-(2-cyclopropylethynyl)-4-pyridyl]-5-methyl-1,4-diazepan-1-yl}-6-amino-3-pyridazinyl)phenol]
16 | 50 to 500 | +++ (+++=>70%) | 50 to 500 | > 70 | C[C@@H]1CCN(c2cc(-c3ccccc3O)nnc2N)CCN1c1ccnc(C#CCN2CC3CC2C3)c1 [Compound P-392, 0-{5-[(R)-4-(2-{3-(2-azabicyclo[2.1.1]hex-2-yl)-1-propynyl}-4-pyridyl)-5-methyl-1,4-diazepan-1-yl]-6-amino-3-pyridazinyl}phenol]
17 | 50 to 500 | +++ (+++=>70%) | 50 to 500 | 30 to 70 | C[C@@H]1CCN(c2cc(-c3ccccc3O)nnc2N)CCN1c1ccnc(C#CC2CC(F)(F)C2)c1 [Compound P-396, 0-{5-[(R)-4-{2-[2-(3,3-difluorocyclobutyl)ethynyl]-4-pyridyl}-5-methyl-1,4-diazepan-1-yl]-6-amino-3-pyridazinyl}phenol]
18 | 50 to 500 | ++ (++=30-70%) | 500 to 5000 | 30 to 70 | C[C@@H]1CCN(c2cc(-c3ccccc3O)nnc2N)CCN1c1ccnc(C#CCO)c1 [Compound P-397, 0-(5-{(R)-4-[2-(3-hydroxy-1-propynyl)-4-pyridyl]-5-methyl-1,4-diazepan-1-yl}-6-amino-3-pyridazinyl)phenol]
19 | 50 to 500 | ++ (++=30-70%) | 500 to 5000 | 30 to 70 | COCC#Cc1cc(N2CCN(c3cc(-c4ccccc4O)nnc3N)CC[C@H]2C)ccn1 [Compound P-398, 0-(5-{(R)-4-[2-(3-methoxy-1-propynyl)-4-pyridyl]-5-methyl-1,4-diazepan-1-yl}-6-amino-3-pyridazinyl)phenol]
20 | < 50 | ++ (++=30-70%) | < 50 | 30 to 70 | CC(C#Cc1cc(N2CCN(c3cc(-c4ccccc4O)nnc3N)CC[C@H]2C)ccn1)N(C)C (stereo partly drawn) [Compound P-399, 0-{5-[(R)-4-{2-[3-(dimcthylamino)-1-butynyl]-4-pyridyl}-5-methyl-1,4-diazepan-1-y1]-6-amino-3-pyridazinyl}phenol]
21 | 50 to 500 | +++ (+++=>70%) | 50 to 500 | > 70 | C[C@@H]1CCN(c2cc(-c3ccccc3O)nnc2N)CCN1c1ccnc(C#C[C@@H](C)O)c1 [Compound P-401, 0-{5-[(R)-4-{2-[(R)-3-hydroxy-1-butynyl]-4-pyridyl}-5-methyl-1,4-diazepan-1-yl]-6-amino-3-pyridazinyl}phenol]
22 | 50 to 500 | ++ (++=30-70%) | 50 to 500 | 30 to 70 | C[C@@H]1CCN(c2cc(-c3ccccc3O)nnc2N)CCN1c1ccnc(C#CCN2C[C@@H]3C[C@H]2CO3)c1 [Compound P-404, 0-{5-[(R)-4-[2-(3-{(1S,4S)-2-oxa-5-azabicyclo[2.2.1]hept-5-yl}-1-propynyl)-4-pyridyl]-5-methyl-1,4-diazepan-1-yl]-6-amino-3-pyridazinyl}phenol]
23 | 500 to 5000 | ++ (++=30-70%) | 500 to 5000 | 30 to 70 | C[C@@H]1CCN(c2cc(-c3ccccc3O)nnc2N)CCN1c1ccnc(C#CCN(C)C)c1C#N [Compound P-406, 4-{(R)-4-[3-amino-6-(0-hydroxyphenyl)-4-pyridazinyl]-7-methyl-1,4-diazepan-1-yl}-2-[3-(dimethylamino)-1-propynyl]nicotinonitrile]
24 | < 50 | ++ (++=30-70%) | < 50 | < 30 | CC(C#Cc1nc(N2CCN(c3cc(-c4ccccc4O)nnc3N)CC[C@H]2C)ccc1C#N)N(C)C (stereo partly drawn) [Compound P-407, 6-{(R)-4-[3-amino-6-(o-hydroxyphenyl)-4-pyridazinyl]-7-methyl-1,4-diazepan-1-yl}-2-[3-(dimethylamino)-1-butynyl]nicotinonitrile]
